The target in experiment [1] is IDH1-R132H recombinant protein (Homo sapiens (Human), UniProt O75874, R132H). Description: IDH1-R132H enzymatic assay (inhibition of NADPH consumption, diaphorase/resazurin readout). To be noted: read-out: Enzyme IDH1 R132H IC50 (Range). Format: biochemical. The procedure:
(§1) Assays were performed in a 384-well black plate. An aliquot of 250 nL of compound was incubated with 10 μL of 30 nM IDH1-R132H or 10 nM IDH1-R132C recombinant protein in assay buffer (50 mM Tris pH=7.5, 150 mM NaCl, 5 mM MgCl2, 0.1% (w/v) Bovine Serum Albumin, and 0.01% Triton X-100) in each well at 25° C. for 15 minutes. After the plate was centrifuged briefly, an aliquot of 10 μL of 2 mM α-ketoglutarate and 20 μM NADPH solution prepared in assay buffer was then added to each well and the reaction was maintained at 25° C. for 45 minutes. An aliquot of 10 μL of diaphorase solution (0.15 U/mL diaphorase and 30 µM Resazurin in assay buffer) was added to each well. The plate was maintained at 25° C. for 15 minutes and then read on a plate reader with excitation and emission wavelengths at 535 nm and 590 nm, respectively. The IC50 of a given compound was calculated by fitting the dose response curve of inhibition of NADPH consumption at a given concentration with the four parameter logistic equation.
(In general: Resazurin is reduced to fluorescent resorufin, in cell work by metabolically active cells.)

Experiment [2] addresses IDH1-R132C recombinant protein (Homo sapiens (Human), UniProt O75874, R132C). Description: IDH1-R132C enzymatic assay (inhibition of NADPH consumption, diaphorase/resazurin readout). Format: biochemical. Conditions: read-out: Enzyme IDH1 R132C IC50 (Range). The procedure: as §1

Chain of IDH1-R132H recombinant protein (O75874 whole entry R132H): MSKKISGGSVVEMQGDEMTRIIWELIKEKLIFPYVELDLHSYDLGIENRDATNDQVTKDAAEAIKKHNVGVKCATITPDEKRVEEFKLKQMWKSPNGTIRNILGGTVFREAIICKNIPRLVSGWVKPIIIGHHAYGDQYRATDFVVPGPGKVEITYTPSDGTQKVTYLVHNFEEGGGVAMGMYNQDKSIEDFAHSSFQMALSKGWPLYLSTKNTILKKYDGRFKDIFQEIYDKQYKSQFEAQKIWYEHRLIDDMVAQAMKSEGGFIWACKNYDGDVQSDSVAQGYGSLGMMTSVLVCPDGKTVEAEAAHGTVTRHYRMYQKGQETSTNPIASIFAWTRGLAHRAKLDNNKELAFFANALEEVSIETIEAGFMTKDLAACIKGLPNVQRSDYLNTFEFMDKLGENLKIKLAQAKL
Chain of IDH1-R132C recombinant protein (O75874 whole entry R132C): as the sequence (O75874 whole entry R132H) above, with H132C counted along it

In general, IC50 refers to the concentration needed to halve the response being measured. As to `C[C@H](Nc1nccc(N(CC2CC2)S(C)(=O)=O)n1)c1cc2cc(Cl)ccc2[nH]c1=O` [Compound I-2, (S)—N-(2-((1-(6-Chloro-2-oxo-1,2-dihydroquinolin-3-yl)ethyl)amino)pyrimidin-4-yl)-N-(cyclopropylmethyl)methanesulfonamide], the IC50 in experiment [1] and in experiment [2] was < 0.1 µM each time.
Take `C[C@H](Nc1nccc(N(C2CCCOC2)S(C)(=O)=O)n1)c1cc2cc(Cl)ccc2[nH]c1=O` (stereo partly drawn) [Compound I-3, N-(2-(((S)-1-(6-chloro-2-oxo-1,2-dihydroquinolin-3-yl)ethyl)amino)pyrimidin-4-yl)-N-(tetrahydro-2H-pyran-3-yl)methanesulfonamide]: the IC50 in experiment [1] and in experiment [2] was 0.1 to 1 µM each time.
On to `CC(C)N(c1ccnc(N[C@@H](C)c2cc3cc(Cl)ccc3[nH]c2=O)n1)S(=O)(=O)c1cccnc1` [Compound I-4, (S)—N-(2-((1-(6-Chloro-2-oxo-1,2-dihydroquinolin-3-yl)ethyl)amino)pyrimidin-4-yl)-N-isopropylpyridine-3-sulfonamide], for which the concentration for half-maximal inhibition (IC50) in experiment [1] and in experiment [2] was < 0.1 µM throughout.
In the case of `CC(C)CS(=O)(=O)N(c1ccnc(N[C@@H](C)c2cc3cc(Cl)ccc3[nH]c2=O)n1)C(C)C` [Compound I-5, (S)—N-(2-(1-(6-Chloro-2-oxo-1,2-dihydroquinolin-3-yl)ethylamino)pyrimidin-4-yl)-N-isopropyl-2-methylpropane-1-sulfonamide], the IC50 in experiment [1] was < 0.1 µM; in experiment [2], 0.1 to 1 µM.
For `C[C@H](Nc1nccc(NC(C)(C)C)n1)c1cc2cc(Cl)ccc2[nH]c1=O` [Compound I-7], in that order: 0.1 to 1 µM and 1 to 10 µM.
As for `CC(C)CN(c1ccnc(N[C@@H](C)c2cc3cc(Cl)ccc3[nH]c2=O)n1)S(C)(=O)=O` [Compound I-8, (S)—N-(2-(1-(6-Chloro-2-oxo-1,2-dihydroquinolin-3-yl)ethylamino)pyrimidin-4-yl)-N-isobutylmethanesulfonamide], the half-inhibitory concentration (IC50) in experiment [1] and in experiment [2] was < 0.1 µM throughout.
For the compound `CC(C)N(c1ccnc(N[C@@H](C)c2cc3cc(Cl)ccc3[nH]c2=O)n1)S(C)(=O)=O` [Compound I-10, (S)—N-(2-(1-(6-Chloro-2-oxo-1,2-dihydroquinolin-3-yl)ethylamino)pyrimidin-4-yl)-N-isopropylmethanesulfonamide], the concentration for half-maximal inhibition (IC50) in experiment [1] was < 0.1 µM; in experiment [2], 0.1 to 1 µM.
As to `CC(C)N(c1ccnc(N[C@@H](C)c2cc3cc(Cl)ccc3[nH]c2=O)n1)S(=O)(=O)CC1CC1` [Compound I-11, (S)—N-(2-((1-(6-Chloro-2-oxo-1,2-dihydroquinolin-3-yl)ethyl)amino)pyrimidin-4-yl)-1-cyclopropyl-N-isopropylmethanesulfonamide], the IC50 in experiment [1] and in experiment [2] was < 0.1 µM throughout.
As for `C[C@H](Nc1nccc(N(C2CC2)S(C)(=O)=O)n1)c1cc2cc(Cl)ccc2[nH]c1=O` [Compound I-14], the values for the IC50 in experiment [1] and in experiment [2] were 0.1 to 1 µM and 1 to 10 µM, respectively.
For `CC(C)CS(=O)(=O)N(C)c1ccnc(N[C@@H](C)c2cc3cc(Cl)ccc3[nH]c2=O)n1` [Compound I-15], in that order: 0.1 to 1 µM and 0.1 to 1 µM.
The corresponding values for `C[C@H](Nc1nccc(N(CCC2CCOCC2)S(C)(=O)=O)n1)c1cc2cc(Cl)ccc2[nH]c1=O` [Compound I-16] are 0.1 to 1 µM and 1 to 10 µM.
For `CC(C)N(c1ccnc(N[C@@H](C)c2cc3cc(Cl)ccc3[nH]c2=O)n1)S(=O)(=O)c1ccc2c(c1)oc(=O)n2C` [Compound I-21], in that order: 0.1 to 1 µM and 1 to 10 µM.
In the case of `CC(C)CN(C(=O)C1CC1)c1ccnc(N[C@@H](C)c2cc3cc(Cl)ccc3[nH]c2=O)n1` [Compound I-35], the 50% inhibitory concentration (IC50) in experiment [1] is 0.1 to 1 µM; in experiment [2] it was 1 to 10 µM.
The corresponding values for `COc1nc(N[C@@H](C)c2cc3cc(Cl)ccc3n(C)c2=O)ncc1C#N` [Compound I-41, (S)-2-((1-(6-chloro-1-methyl-2-oxo-1,2-dihydroquinolin-3-yl)ethyl)amino)-4-methoxypyrimidine-5-carbonitrile] are 1 to 10 µM and 1 to 10 µM.
Turning to `C[C@@H](Nc1nccc(N2CCOC2=O)n1)c1cc2cc(Cl)ccc2[nH]c1=O` [Compound I-45], the IC50 in experiment [1] and in experiment [2] was 1 to 10 µM throughout.
As to `CC(C)[C@H]1COC(=O)N1c1ccnc(NCc2cc3cc(Cl)ccc3[nH]c2=O)n1` [Compound I-46, (S)-3-(2-(((6-Chloro-2-oxo-1,2-dihydroquinolin-3-yl)methyl)amino)pyrimidin-4-yl)-4-isopropyloxazolidin-2-one], the IC50 in experiment [1] and in experiment [2] was < 0.1 µM in each case.
`CC(Nc1nccc(N2CCOC2=O)n1)c1cc2cc(Cl)ccc2[nH]c1=O` (stereo not drawn) [Compound I-48]: the IC50 in experiment [1] was < 0.1 µM; in experiment [2], 0.1 to 1 µM.
Regarding `Cc1nn(C)c(C)c1-c1ccnc(N[C@@H](C)c2cc3cc(Cl)ccc3[nH]c2=O)n1` [Compound I-84], the IC50 in experiment [1] was 1 to 10 µM; in experiment [2], > 10 µM.
Consider `C[C@H](Nc1nccc(-c2c[nH]nc2C(F)(F)F)n1)c1cc2cc(Cl)ccc2[nH]c1=O` [Compound I-86], for which the IC50 is 1 to 10 µM in experiment [1] and > 10 µM in experiment [2].
As for `C[C@H](Nc1nccc(-c2coc3ccccc23)n1)c1cc2cc(Cl)ccc2[nH]c1=O` [Compound I-89], the IC50 in experiment [1] and in experiment [2] was 1 to 10 µM in each case.
Take `C[C@H](Nc1nccc(-c2cnn(C)c2)n1)c1cc2cc(Cl)ccc2[nH]c1=O` [Compound I-91]: the results for the concentration for half-maximal inhibition (IC50) in experiment [1] and in experiment [2] were 0.1 to 1 µM and 1 to 10 µM, respectively.
For `COc1ncccc1-c1ccnc(N[C@@H](C)c2cc3cc(Cl)ccc3[nH]c2=O)n1` [Compound I-93], the IC50 in experiment [1] was 1 to 10 µM; in experiment [2] it was > 10 µM.
The corresponding values for `COc1cnccc1-c1ccnc(N[C@@H](C)c2cc3cc(Cl)ccc3[nH]c2=O)n1` [Compound I-97] are 1 to 10 µM and 1 to 10 µM.
The corresponding values for `C[C@H](Nc1nccc(-c2cccc3c2OCC3)n1)c1cc2cc(Cl)ccc2[nH]c1=O` [Compound I-98] are > 10 µM and > 10 µM.
For `COc1ccncc1-c1ccnc(N[C@@H](C)c2cc3cc(Cl)ccc3[nH]c2=O)n1` [Compound I-99], in that order: 0.1 to 1 µM and 0.1 to 1 µM.
For the compound `COCc1ccccc1-c1ccnc(N[C@@H](C)c2cc3cc(Cl)ccc3[nH]c2=O)n1` [Compound I-100], the half-inhibitory concentration (IC50) lay within 0.1 to 1 µM in experiment [1] and 1 to 10 µM in experiment [2].
Turning to `C[C@H](Nc1nccc(CC(N)=O)n1)c1cc2cc(Cl)ccc2[nH]c1=O` [Compound I-130, (S)-2-(2-((1-(6-chloro-2-oxo-1,2-dihydroquinolin-3-yl)ethyl)amino)pyrimidin-4-yl) acetamide], the IC50 in experiment [1] is 0.1 to 1 µM.
On the same count and under the same terms, with `CNC(=O)Cc1ccnc(N[C@@H](C)c2cc3cc(Cl)ccc3[nH]c2=O)n1` [Compound I-131] the figure was 0.1 to 1 µM; with `C[C@H](Nc1nccc(CNS(C)(=O)=O)n1)c1cc2cc(Cl)ccc2[nH]c1=O` [Compound I-132], 1 to 10 µM.
On the same count and under the same terms, with `COC(=O)C(c1ccnc(N[C@@H](C)c2cc3cc(Cl)ccc3[nH]c2=O)n1)S(C)(=O)=O` (stereo partly drawn) [Compound I-134] the figure was 1 to 10 µM; with `C[C@H](Nc1nccc(C2(S(C)(=O)=O)CC2)n1)c1cc2cc(Cl)ccc2[nH]c1=O` [Compound I-136, (S)-6-Chloro-3-(1-(4-(1-(methylsulfonyl)cyclopropyl)pyrimidin-2-ylamino)ethyl)quinolin-2(1H)-one], 0.1 to 1 µM; with `CC(=O)N(Cc1ccnc(N[C@@H](C)c2cc3cc(Cl)ccc3[nH]c2=O)n1)C1CC1` [Compound I-137, (S)—N-((2-((1-(6-chloro-2-oxo-1,2-dihydroquinolin-3-yl)ethyl)amino)pyrimidin-4-yl)methyl)-N-cyclopropylacetamide], 1 to 10 µM.
In the case of `C[C@H](Nc1nccc(N)n1)c1cc2cc(Cl)ccc2[nH]c1=O` [Compound I-139], the IC50 in experiment [1] fell in the range of 1 to 10 µM.
As for `C[C@@H](Nc1nccc(N2CCCOC2=O)n1)c1cc2cc(Cl)ccc2[nH]c1=O` [Compound I-140], the half-inhibitory concentration (IC50) in experiment [1] is > 10 µM.
The same measure, in the same setting: as for `COc1cc2[nH]c(=O)c([C@@H](C)Nc3nccc(N4CCOC4=O)n3)cc2cc1Cl` [Compound I-148], the figure is > 10 µM; as for `COc1cc(OC)nc(NCc2cc3cc(Cl)ccc3[nH]c2=O)n1` [Compound I-163, 6-Chloro-3-(((4,6-dimethoxypyrimidin-2-yl)amino)methyl)quinolin-2(1H)-one], 1 to 10 µM; as for `CC(C)N(c1ccnc(NCc2cc3ccccc3[nH]c2=O)n1)S(C)(=O)=O` [Compound I-164, N-isopropyl-N-(2-(((2-oxo-1,2-dihydroquinolin-3-yl)methyl)amino)pyrimidin-4-yl)methanesulfonamide], > 10 µM.
With `CC(C)N(c1ccnc(NCc2cc3ccc(F)cc3[nH]c2=O)n1)S(C)(=O)=O` [Compound I-165], the 50% inhibitory concentration (IC50) in experiment [1] lay within 1 to 10 µM.
Regarding `Cc1ccc2[nH]c(=O)c(CNc3nccc(N(C(C)C)S(C)(=O)=O)n3)cc2c1` [Compound I-166], in experiment [1], the IC50 is 1 to 10 µM.
`O=C1OCCN1c1ccnc(NC(CF)c2cc3cc(Cl)ccc3[nH]c2=O)n1` (stereo not drawn) [Compound I-171]: the 50% inhibitory concentration (IC50) in experiment [1] was > 10 µM.

The values are drawn from US10280150B2 (FORMA TM2, Inc., priority 2014, dated 2019).
